Experiments:
[1] = test system: MMTV/Neu transgenic mice kept pregnant or lactating; assay: Lactation induced murine model of Her 2 positive breast cancer, MMTV/Neu transgenic mice; format: in vivo
Description: MMTV/Neu transgenic mice were treated with Compound 003 that was added to the daily food of the mice at an average daily dose level of 50 mg/kg/day for the duration of the experiment. Mice were screened for the tumor formation every other day. Tumor-free survival was analyzed using life table statistics as previously reported. The protective anti-cancer activity of Compound 003 was evaluated according to the rise of the survival rate and prolongation of the tumor-free survival of the experimental animals as compared with the control animals. Statistical Significance was determined using the Kaplan Meier Log-Rank test.
In the second experiment, in order to maintain the development of mammary gland and maximum expression of the MMTV-driven neu transgene, all female transgenic mice were kept either pregnant or lactating by continued housing with male FVB mice. Treatments commenced when female mice were 6-weeks of age. Vehicle-treated control mice (N=16) developed breast cancer faster than vehicle treated virgin transgenic mice with a median cancer-free survival time of 169.5 days (Mean=160.8±9.3 days). Compound 003 prolonged the median cancer-free survival from 169.5 days to 234 days (P=0.05). At 200 days, the cumulative proportion of vehicle-treated neu transgenic mice was only 38±12%, whereas at the same time 75±11% of Compound 003-treated neu transgenic mice were cancer-free (FIG. 9).

[2] = test system: BT20 cells; assay: Cellular uptake of Compound 003; format: in vitro ADME, human; details: 50 μM, 1 hr
From the text: (§1) Intracellular metabolism of Compound 003 was studied in CEM T-lineage lymphoma cell line, BT20 breast cancer cell line, T98 glioblastoma cell line, and Nalm-6 B-lineage leukemia cell line. CEM and Nalm6 cells were maintained in RPMI supplemented with 10% fetal bovine serum, and 1% penicillin/streptomycin. BT20 and T98 cells w.ere cultured in a medium composed of MEM, 10% fetal bovine serum, 0.1-mM of nonessential amino acids and Earles salts, and 1% penicillin/streptomycin. CEM and Nalm6 cells at a density of 10^6 cells per ml were utilized in the drug metabolism study. BT20 and T98 cells were seeded in 6-cm petri-dishes at 4 million cells and 2 million cells per plate, respectively, the day before the experiment. Either one plate of adherent cells or 10 million non-adherent cells was utilized at each time point. Cells were incubated with various concentrations of the compounds up to 24 hrs at 37° C. After incubation, cells were washed 2 times with ice-cold PBS, and extracted by addition of 0.5-1 ml of 60% methanol. […] With efflux experiments, cells 1×10^6/mL (the same density as in the uptake study) were incubated with 100 μM Compound 003 for 1 hr, washed 2 times with ice-cold PBS, and resuspended with culture medium without drug, and the metabolite efflux from cells to the medium was measured after 6 hr of incubation.

[3] = test system: BT20 breast cancer cell line; assay: Intracellular metabolism of Compound 003 to ala-AZT-MP, BT20; format: in vitro ADME, human; details: 25 μM Compound 003
From the text: as §1, with “methanol. Cell lysates were kept at −20° C. overnight, after which lysates were centrifuged at 15000×g for 10 minutes to remove the cell debris. One hundred microliters of these lysates were injected directly to HPLC. For half-life study, cells at the same density as in drug metabolism study were treated with 100 μM Compound 003 for 2 hrs, after which cells were washed 2 times with ice-cold PBS, and resuspended in warm media until the time they were harvested. For uptake and efflux study, cells were seeded at 2 million cells in 2 ml of media.” for “methanol.”, “incubation. […]” for “incubation.”

[4] = test system: DU145 prostate cancer cells; assay: Confocal laser scanning microscopy of mitotic spindle, DU145; format: cell-based, human; details: 100 μM
Description: Immunofluorenscence was used to examine the spindle features of human cancer cell lines treated with Compound 003 or 0.5% DMSO. Initially, cells at log phase were seeded onto sterile 22 mm coverslips in six -well culture plates. 24 hours later, the cells were treated with compound 003 for 2 hours at 37° C., 5% C02, fixed in methanol (−20° C. 15 min) followed by a 15 minute incubation with PBS +0.1.% Tx-100. The coverslips were incubated with antibodies raised against α-tubulin, γ-tubulin (Sigma Chemical Co., St Louis, Mo.) (40 min 37° C.), washed in PBS-Tx-100, and incubated with an appropriate secondary antibody conjugated to FITC (Jackson ImmunoResearch, Westgrove, Pa.). Cellular DNA was labeled with 5 μM TOTO3 (Molecular Probes, Eugene, Oreg.) for 20 minutes. Coverslips were immediately inverted onto slides in Vectashield (Vector Labs, Burlingame, Calif.) to prevent photobleaching, sealed with nail varnish and stored at −20° C. The slides were examined using a Bio-Rad MRC-1024 Laser Scanning Confocal Microscope equipped with a Kr/Ar laser (BioRad, Hercules, Calif.) mounted on a Nikon Eclipse E800 upright microscope with high numerical aperture objectives (Nikon, Melville, N.Y.). Digital data were processed using Lasersharp (BioRad) and Adobe Photoshop software (Adobe Systems, Mountain View, Calif.). […]

Structure (SMILES): COC(=O)C(C)NP(=O)(OCC1OC(n2cc(C)c(=O)[nH]c2=O)CC1N=[N+]=[N-])Oc1ccc(OC)cc1 (centres unmarked) [Compound 003, 3′-azidothymidine 5′-[p-methoxyphenylmethoxyalaninyl phosphate]]
- median cancer-free survival ([1]; 50 mg/kg/day in food, vehicle 169.5 days, P=0.05): 234 days
- proportion of mice cancer-free ([1]; 50 mg/kg/day, at 200 days, vehicle 38±12%): 75±11%
- uptake of Compound 003, BT20 relative to Nalm6 and CEM cells [2]: about 2 fold
- time to peak intracellular metabolite concentration [3]: within an hour
- mitotic spindle formation [4]: induced aberrant multipolar spindle formation

Reference: patent US20060046972A1, “Cytotoxic nucleoside analog compound 003 for treating cancer” (Parker Hughes Institute, priority 2004, published 2006)
